Columns and labels:
[1] = system: DIPGX37 (H3.3 K27M diffuse intrinsic pontine glioma line); assay: EC50 (inflection of fitted growth-inhibition curve) (log10 M)
Method in brief: (§1)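 A pin tool was used to add a 10-point threefold dilution series (mean top concentration 35 μM), in triplicate, to patient-derived pHGG/DIPG cell lines and astrocyte controls seeded on 384-well plates coated with 1% Geltrex. After 7 days at 37 °C and 5% CO2 (3 days for iAstro), CellTiter-Glo luminescence was log2-transformed, normalised on each plate to % activity relative to negative (solvent) and positive control wells, and pooled. EC50 and maximal response (yFin) were read from the three- or four-parameter log-logistic fit with the lowest AICc.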

[2] = system: HGGX39 (paediatric high-grade glioma line); assay: as above
Method in brief: as §1

[3] = system: DIPGX29 (H3.3 K27M diffuse intrinsic pontine glioma line); assay: as above
Method in brief: as §1

[4] = system: HGGX6 (H3.3 G34R paediatric high-grade glioma line); assay: as above
Method in brief: as §1

[5] = system: DIPGX37; assay: maximal growth inhibition (yFin) relative to DMSO / staurosporine; higher = more efficacious
Method in brief: as §1

[6] = system: HGGX39; assay: as above
Method in brief: as §1

[7] = system: DIPGX29; assay: as above
Method in brief: as §1

[8] = system: HGGX6; assay: as above
Method in brief: as §1

[9] = system: DIPGX37; assay: area under dose-response curve of % growth inhibition (log2 RLU vs DMSO / staurosporine), 1e-11 to 1e-4 M (% x log10 M); higher = more growth inhibition
Method in brief: (§2)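 A 10-point threefold dilution series, mean top concentration 35 μM, was applied in triplicate to patient-derived pHGG/DIPG lines and astrocytes on 1% Geltrex-coated 384-well plates for 7 days (3 days for iAstro) at 37 °C, 5% CO2. Per-plate % activity between solvent and positive controls was calculated from log2-transformed CellTiter-Glo luminescence. Area under the curve followed from the trapezoid rule on a log-logistic fit, or on a smoothing spline when the sigmoid fit failed.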

[10] = system: HGGX39; assay: as above
Method in brief: as §2

[11] = system: DIPGX29; assay: as above
Method in brief: as §2

[12] = system: HGGX6; assay: as above
Method in brief: as §2

Structure (SMILES)	EC50 (log10 M) [1]	EC50 (log10 M) [2]	EC50 (log10 M) [3]	EC50 (log10 M) [4]	maximal growth inhibition [5] [%]	maximal growth inhibition [6] [%]	maximal growth inhibition [7] [%]	maximal growth inhibition [8] [%]	area under dose-response curve [9]	area under dose-response curve [10]	area under dose-response curve [11]	area under dose-response curve [12]
O=C1[C@H](Cc2ccc(O)cc2)N2C(=O)CCN(C(=O)NCc3ccccc3)[C@H]2CN1Cc1cccc2ccccc12 [ICG001]	-5.54	-5.67	-5.37	-5.14	33.4	32.6	21.3	31.8	51.9	52.2	29.3	41.9
CC(C)(C)c1cc(C(C)(C)C)c(NC(=O)c2c[nH]c3ccccc3c2=O)cc1O [IVACAFTOR]	-4.98	-5.04	-4.99	-5.01	97	97.1	90.9	91	99.3	101	90.3	91.8
CC(=O)N1CCN(c2ccc(OCC3COC(Cn4ccnc4)(c4ccc(Cl)cc4Cl)O3)cc2)CC1 (configuration not stated) [KETOCONAZOLE]	-4.96	-5.12	-4.92	-4.94	37.6	68.2	40.2	56.7	36.1	73.6	40.9	53.4
CCOC(=O)C1=C(C)NC(C)=C(C(=O)OCC)C1c1ccccc1/C=C/C(=O)OC(C)(C)C [LACIDIPINE]	-4.83	-4.84	-4.84	-4.86	91.1	90.8	87.2	74.3	75.3	76.3	72.8	63.4
CS(=O)(=O)CCNCc1ccc(-c2ccc3ncnc(Nc4ccc(OCc5cccc(F)c5)c(Cl)c4)c3c2)o1 [LAPATINIB]	-4.7	-4.71	-4.72	-4.69	78.4	76.9	76.7	76.8	72.5	55	70.3	57.8
Cc1cn(CCN2CCN(c3ccccc3-c3cc(C#N)cc(C(=O)NCCCN4CCCC4)c3)CC2)c2ccccc12 [LLY-507]	-5.22	-4.84	-5.13	-5.12	75.6	79.1	76.7	79.4	92.2	66.6	86.5	92.5
CN(C)C(=O)C(CCN1CCC(O)(c2ccc(Cl)cc2)CC1)(c1ccccc1)c1ccccc1 [LOPERAMIDE]	-4.74	-4.75	-4.79	-4.74	93.9	80.5	81.5	79.2	84	60.8	75.5	58.7
CC(C)OC(=O)C(C(=O)OC(C)C)=C1SC=CS1 [MALOTILATE]	-4.89	-4.94	-4.88	-4.94	57.4	83.7	35.2	34.8	50.9	88.2	30.3	32.7
Cc1ccc(NC(=O)c2ccc(CN3CCN(C)CC3)cc2)cc1Nc1nc(-c2cccnc2)cs1 [MASITINIB]	-4.65	-4.71	-4.69	-4.66	81	81.1	72.3	78.3	52.8	66.4	57.8	64.6
Cc1cccc(CN2CCN(C(c3ccccc3)c3ccc(Cl)cc3)CC2)c1 (configuration not stated) [MECLIZINE]	-4.83	-4.91	-4.89	-4.86	79.1	48.7	41.9	41.1	85.1	44.3	42.8	35.5
CN(C)c1ccc2nc3ccc(=[N+](C)C)cc-3sc2c1 [METHYLENE BLUE]	-5.04	-5.48	-5.31	-5.03	54.8	50.7	56.7	69.6	67.9	76.9	76.5	89.6
Cc1c(CN2CCC(Nc3ncnc4sc(CC(F)(F)F)cc34)CC2)ccc2c1cc(C#N)n2Cc1cn[nH]c1 [MI-503]	-4.98	-5.14	-4.9	-4.9	72.1	74.2	74	71.9	70.7	84.8	92.6	83.9
Clc1ccc(COC(Cn2ccnc2)c2ccc(Cl)cc2Cl)c(Cl)c1 (configuration not stated) [MICONAZOLE]	-4.79	-4.94	-4.89	-4.87	61.9	42.1	45.9	41.5	48.6	39.2	46.5	35.5
CO[C@@]12[C@H](COC(N)=O)C3=C(C(=O)C(C)=C(N)C3=O)N1C[C@@H]1N[C@@H]12 [MITOMYCIN C]	-4.87	-4.78	-4.78	-4.76	73	69.7	62.3	66.2	95.2	91.5	78	75.4
COc1c(C)c2c(c(O)c1C/C=C(\C)CCC(=O)OCCN1CCOCC1)C(=O)OC2 [MYCOPHENOLATE MOFETIL]	-5.33	-5.61	-5.33	-5.49	30.5	24.4	24.8	20	41.2	39.6	36.4	30.4
O=C(N/N=C/c1ccc([N+](=O)[O-])o1)c1ccc(O)cc1 [NIFUROXAZIDE]	-4.75	-4.81	-4.78	-4.77	81.6	49.3	81.1	74.2	78.2	39.4	73.5	56.6

Reference: the supplement of paper PMC8253809
